Here are results for seven compounds from US8044055B2, “2-phenyl-6-aminocarbonyl-pyrimidine derivatives and their use as P2Y12 receptor” (Actelion Pharmaceuticals Ltd., priority 2006, dated 2011).

Counter-ions that a name gives are not always drawn.

In the assay the target is T1, human P2Y12 receptor (Homo sapiens, UniProt Q9H244).
T1 construct: expressed in transfected cells; host or cells: Chinese Hamster Ovary (CHO) cells
The assay can be described thus: P2Y12 receptor binding assay. Particulars: CHO cells with recombinant expression of the human P2Y12 receptor; tritium-labeled 2-methyl-S-ADP; 2 hours at room temperature. The method, then: Chinese Hamster Ovary (CHO) cells with recombinant expression of the human P2Y12 receptor were cultured in 24 well cell-culture plates. Cells were washed three times with binding buffer (50 mM Tris pH 7.4, 100 mM NaCl, 1 mM EDTA, 0.5% BSA). The cells were then incubated with 0.5 ml per well binding buffer containing tritium-labeled 2-methyl-thio-adenosine 5′-diphosphate (2-methyl-S-ADP) (between 100'000 and 300'000 dpm per well) and various concentrations of test compounds. After incubation at room temperature for 2 hours, cells were washed three times with binding buffer. Then, cells were solubilized by addition of 0.5 ml solubilization buffer (SDS, NaOH, EDTA). The content of each well was then transferred into beta-counter vials and 2.0 ml of Ultima Gold Scintillation liquid was added.

T1 sequence (Q9H244 whole entry): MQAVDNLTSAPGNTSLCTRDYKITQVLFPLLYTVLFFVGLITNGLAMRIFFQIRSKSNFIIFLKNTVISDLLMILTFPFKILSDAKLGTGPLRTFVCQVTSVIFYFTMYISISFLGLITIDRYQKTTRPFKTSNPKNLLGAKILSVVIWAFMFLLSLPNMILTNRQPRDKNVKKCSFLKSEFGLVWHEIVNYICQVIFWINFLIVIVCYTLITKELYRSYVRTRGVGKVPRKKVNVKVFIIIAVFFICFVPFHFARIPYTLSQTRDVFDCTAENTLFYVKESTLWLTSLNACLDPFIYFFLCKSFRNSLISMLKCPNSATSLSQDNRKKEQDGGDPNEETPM

The term IC50 denotes the concentration that gives 50% inhibition. In the case of `CCOC(=O)N1CCN(C(=O)[C@H](CCC(=O)O)NC(=O)c2cc(OCCOCCOC)nc(-c3ccccc3)n2)CC1` [Example 1, 4-[(S)-4-carboxy-2-({6-[2-(2-methoxy-ethoxy)-ethoxy]-2-phenyl-pyrimidine-4-carbonyl}-amino)-butyryl]-piperazine-1-carboxylic acid ethyl ester], the IC50 worked out at 108 nM.
With `CCCCOC(=O)N1CCN(C(=O)[C@H](CCC(=O)OC(C)(C)C)NC(=O)c2cc(O[C@@H]3CCOC3)nc(-c3ccccc3)n2)CC1` [Example 36, 4-[(S)-4-tert-butoxycarbonyl-2-({2-phenyl-6-[(R)-(tetrahydro-furan-3-yl)oxy]-pyrimidine-4-carbonyl}-amino)-butyryl]-piperazine-1-carboxylic acid butyl ester], the IC50 was found to be 448 nM.
Turning to `CCOC(=O)N1CCN(C(=O)[C@H](CCC(=O)O)NC(=O)c2cc(OC3CCOC3)nc(-c3ccccc3)n2)C(C)C1` (stereo partly drawn) [Example 10, ((S)-4-carboxy-2-{[2-phenyl-6-(tetrahydro-furan-3-yloxy)-pyrimidine-4-carbonyl]-amino}-butyryl)-3-methyl-piperazine-1-carboxylic acid ethyl ester], the IC50 worked out at 126 nM.
For `CCOC(=O)N1CCN(C(=O)[C@H](CCC(=O)O)NC(=O)c2cc(OC3CCCN(C)C3)nc(-c3ccccc3)n2)CC1` (stereo partly drawn) [Example 6, 4-((S)-4-carboxy-2-{[6-(1-methyl-piperidin-3-yloxy)-2-phenyl-pyrimidine-4-carbonyl]-amino}-butyryl)-piperazine-1-carboxylic acid ethyl ester trifluoroacetate salt], the half-maximal inhibitory concentration (IC50) was found to be 238 nM.
The value for `CCCCOC(=O)N1CCN(C(=O)[C@H](CCC(=O)OC(C)(C)C)NC(=O)c2cc(OC3CCNCC3)nc(-c3ccccc3)n2)CC1` [Example 38, 4-((S)-4-tert-butoxycarbonyl-2-{[2-phenyl-6-(piperidin-4-yloxy)-pyrimidine-4-carbonyl]-amino}-butyryl)-piperazine-1-carboxylic acid butyl ester] was 13000 nM; that for `CCCCOC(=O)N1CCN(C(=O)[C@H](CCC(=O)O)NC(=O)c2cc(OC3CCNCC3)nc(-c3ccccc3)n2)CC1` [Example 37, 4-((S)-4-carboxy-2-{[2-phenyl-6-(piperidin-4-yloxy)-pyrimidine-4-carbonyl]-amino}-butyryl)-piperazine-1-carboxylic acid butyl ester] was 71 nM; that for `CCOC(=O)N1CCN(C(=O)[C@H](CCc2nnn[nH]2)NC(=O)c2cc(OC3CCOC3)nc(-c3ccccc3)n2)CC1` (stereo partly drawn) [Example 17, 4-[(S)-2-{[2-phenyl-6-(tetrahydro-furan-3-yloxy)-pyrimidine-4-carbonyl]-amino}-4-(1H-tetrazol-5-yl)-butyryl]-piperazine-1-carboxylic acid ethyl ester] was 94 nM.
